From patent US6784203B1, “Cytokine production inhibitors” (Cubist Pharmaceuticals, Inc., priority 2001, dated 2004)
pIC50: −log10 of the molar value.

Key:
IL-1β = IL-1β release from human monocytes (LPS-induced, ELISA); assay type: cell-based; settings: Monocyte; for pIC50: human monocytes, 1 ng/ml LPS, 18 hours, read-out: IC50 LPS-induced IL-β production (monocytes)
Description: The effect of the compounds of the invention on IL-Iβ release was investigated using a known method (Bakouche, O. et al., (1992), J. Immunol: 148, 84-91). Human monocytes were purified by elutriation from Buffy coats obtained from normal healthy donors after the separation of peripheral blood mononuclear cells (PBMC) on Lymphoprep. The freshly isolated monocytes were suspended in RPMI 1640 supplemented with 5% FBS and exposed to dose ranges of the compound to be tested followed by the addition of 1 ng/ml LPS. Cells were incubated for 18 hours at 37° C. with 5% CO2 and the cell culture supernatants harvested and stored at −70° C. Effects on the production of IL-1β were determined using an ELISA.

TNF-α = TNF-α release from U937 cells (LPS-induced, DELFIA); assay type: cell-based; settings: Homo sapiens, U-937; for pIC50: PMA-pretreated U937 cells, 1 ng/ml LPS, 18 hours, read-out: IC50 LPS-induced TNF production in U937 cells
Procedure: The effect of the compounds of the invention on TNF-α release was investigated using a known method (Lozanski, G. et al., (1992), J. Rheumatol; 19, 921-26).
The human histolytic lymphoma U937 cell line was obtained from a commercial source (ECACC, Salisbury, UK) and maintained in RPMI 1640 medium supplemented with 2 mM L-glutamine and 5% fetal bovine serum. The cells were pretreated with 25 ng/ml PMA for six hours and then exposed to dose ranges of the compound to be tested followed by the addition of 1 ng/ml LPS.
After 18 hours incubation at 37° C. with 5% CO2 the cell culture supernatants were harvested and stored at −70° C., until required for determination of TNF-α secretion by Dissociation Enhanced Lanthanide Fluorescence Immuno Assay (DELFIA). The effect of the compounds on cell cytotoxicity was measured using the tetrazolium salt, XTT (2,3-bis[2-methoxy-4-nitro-5-sulphophenyl]-2H-tetrazolium-5-carboxanilide salt) and effects on protein synthesis were determined by investigation of [^3H] Leucine uptake.

Structure (SMILES) | inhibition at 0.5 µM (IL-1β; Homo sapiens, concentration 0.5 μM) | inhibition at 2 µM (IL-1β; Homo sapiens, concentration 2 μM) | inhibition at 20 µM (IL-1β; Homo sapiens, concentration 20 μM) | pIC50 (IL-1β) | pIC50 (TNF-α) | inhibition at 0.12 µM (TNF-α; concentration 0.12 μM) | inhibition at 0.5 µM (TNF-α; concentration 0.5 μM) | inhibition at 2 µM (TNF-α; concentration 2 μM) | inhibition at 8 µM (TNF-α; concentration 8 μM) | inhibition at 0.044 µM (IL-1β; Homo sapiens, concentration 0.044 μM) | inhibition at 0.22 µM (IL-1β; Homo sapiens, concentration 0.22 μM) | inhibition at 1.1 µM (IL-1β; Homo sapiens, concentration 1.1 μM) | inhibition at 5.5 µM (IL-1β; Homo sapiens, concentration 5.5 μM) | inhibition at 0.01 µM (TNF-α; concentration 0.01 μM) | inhibition at 0.04 µM (TNF-α; concentration 0.04 μM) | inhibition at 0.17 µM (TNF-α; concentration 0.17 μM) | inhibition at 0.7 µM (TNF-α; concentration 0.7 μM) | inhibition at 2.8 µM (TNF-α; concentration 2.8 μM)
CCCCCC[C@H](C)/C=C(C)/C=C/C(=O)[C@H]1C=CC(=O)O[C@H]1/C=C/C(=O)O [R in formula (I) is CO2H, 3-((5S,6S)-5,6-dihydro-5-((6S)-4,6-dimethyldodeca-2E,4E-dienoyl)-2H-pyran-2-on-6-yl)-prop-2E-enoic acid] | 14% | 81.5% | 99% | 5.70 | 5.70 | 47% | 77% | 100% | 107% | – | – | – | – | – | – | – | – | –
C/C=C/[C@@H]1OC(=O)C=C[C@@H]1C(=O)/C=C/C(C)=C/[C@@H](C)CCCCCC [R in formula (I) is CH3, 3-((5S,6S)-5,6-dihydro-5-((6S)-4,6-dimethyldodeca-2E,4E-dienoyl)-2H-pyran-2-on-6-yl)-prop-2E-ene] | – | – | – | 6.72 | 7.10 | – | – | – | – | 23% | 41% | 72% | 88% | 0.85% | 20% | 61% | 90% | 99%
